Results on five molecules are retold here after patent US8389526B2, “3-heteroarylmethyl-imidazo[1,2-b]pyridazin-6-yl derivatives” (Novartis AG, priority 2009, dated 2013).

The term IC50 denotes the midpoint of a concentration-inhibition curve.

The structures appear in SMILES notation. A value given as a limit tells only on which side of the number the result lay.

For the experiment, the target named is T1, c-Met (Homo sapiens, UniProt P08581).
T1 construct: adapted to measure the phosphorylation of endogenous cellular proteins in cell lysates; endogenous in cells; host or cells: GTL-16
T1 sequence (P08581 25-1390): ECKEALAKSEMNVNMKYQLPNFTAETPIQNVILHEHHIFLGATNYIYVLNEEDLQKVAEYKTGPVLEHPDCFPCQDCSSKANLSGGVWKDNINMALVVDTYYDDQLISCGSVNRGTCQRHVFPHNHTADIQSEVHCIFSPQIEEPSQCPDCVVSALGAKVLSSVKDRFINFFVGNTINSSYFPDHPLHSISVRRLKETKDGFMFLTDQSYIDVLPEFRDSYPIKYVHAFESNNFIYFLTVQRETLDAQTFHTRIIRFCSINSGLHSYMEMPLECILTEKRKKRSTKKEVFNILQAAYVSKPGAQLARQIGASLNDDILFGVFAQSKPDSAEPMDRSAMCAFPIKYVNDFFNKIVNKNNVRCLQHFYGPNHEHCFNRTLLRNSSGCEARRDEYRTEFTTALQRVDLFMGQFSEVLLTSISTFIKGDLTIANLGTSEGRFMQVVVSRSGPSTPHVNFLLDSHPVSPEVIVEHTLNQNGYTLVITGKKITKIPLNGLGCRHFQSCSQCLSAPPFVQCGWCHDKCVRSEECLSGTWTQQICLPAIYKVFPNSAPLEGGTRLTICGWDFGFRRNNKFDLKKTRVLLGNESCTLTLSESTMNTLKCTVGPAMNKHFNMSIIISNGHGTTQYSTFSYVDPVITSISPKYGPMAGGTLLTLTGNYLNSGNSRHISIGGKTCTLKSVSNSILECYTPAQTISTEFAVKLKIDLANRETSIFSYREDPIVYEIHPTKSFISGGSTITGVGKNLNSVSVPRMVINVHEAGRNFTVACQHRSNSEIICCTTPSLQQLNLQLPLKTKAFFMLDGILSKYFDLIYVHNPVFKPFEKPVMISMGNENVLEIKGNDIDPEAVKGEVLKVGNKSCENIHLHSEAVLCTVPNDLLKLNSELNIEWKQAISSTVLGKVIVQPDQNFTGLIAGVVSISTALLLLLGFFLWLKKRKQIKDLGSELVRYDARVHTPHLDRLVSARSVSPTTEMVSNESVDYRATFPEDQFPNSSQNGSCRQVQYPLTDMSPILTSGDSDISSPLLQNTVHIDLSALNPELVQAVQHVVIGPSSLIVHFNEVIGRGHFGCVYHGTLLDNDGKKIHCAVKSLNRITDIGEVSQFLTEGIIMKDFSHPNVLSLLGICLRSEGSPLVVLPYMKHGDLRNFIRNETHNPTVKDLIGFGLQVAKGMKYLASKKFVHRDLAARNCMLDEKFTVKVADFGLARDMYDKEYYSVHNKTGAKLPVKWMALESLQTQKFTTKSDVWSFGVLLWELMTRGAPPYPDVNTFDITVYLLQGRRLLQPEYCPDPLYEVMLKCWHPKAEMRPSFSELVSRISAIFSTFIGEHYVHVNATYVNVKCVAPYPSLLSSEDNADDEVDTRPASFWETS
The experiment in a line: GTL-16 c-Met autophosphorylation measured by AlphaScreen detection. The settings on record: GTL-16 cells, 1 h incubation, AlphaScreen p-c-Met; read-out: GTL-16 IC50 c-Met phosphorylation. Type of experiment: cell-based. In outline:
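GTL-16 MET-amplified gastric cancer cells, serum-free DMEM with 0.1% BSA, exposed to 8-point compound dilutions for 1 h at 37° C (0.11% DMSO final). Lysates probed for phospho-c-Met by AlphaScreen using anti-c-Met antibody, biotinylated PY20 phosphotyrosine antibody, Protein A acceptor and streptavidin donor beads.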
A general note: Bead proximity is the source of the signal in Alpha formats.
In the case of `C[C@@H](c1c(F)cc2ncccc2c1F)c1cnc2ccc(N3CCNC(=O)C3)nn12` (single isomer, unassigned) [Example 5], the IC50 was below 3 nM.
With `C[C@@H](c1c(F)cc2ncccc2c1F)c1cnc2ccc(N3CCN(C)C(=O)C3)nn12` [Example 2, 4-{3-[(S)-1-(5,7-Difluoro-quinolin-6-yl)-ethyl]-imidazo[1,2-b]pyridazin-6-yl}-1-methyl-piperazin-2-one] the figure was 2.7 nM; with `C[C@@H](c1c(F)cc2ncccc2c1F)c1cnc2ccc(N3CCNCC3)nn12` [Example 7, 5,7-Difluoro-6-[(S)-1-(6-piperazin-1-yl-imidazo[1,2-b]pyridazin-3-yl)-ethyl]-quinoline], 2.1 nM.
Turning to `CC(=O)N1CCN(c2ccc3ncc([C@@H](C)c4c(F)cc5ncccc5c4F)n3n2)CC1` [Example 11, 1-(4-{3-[(S)-1-(5,7-Difluoro-quinolin-6-yl)-ethyl]-imidazo[1,2-b]pyridazin-6-yl}-piperazin-1-yl)ethanone], the IC50 stood at 4.4 nM.
In the case of `C[C@@H](c1cc2cnn(C)c2cc1F)c1cnc2ccc(N3CCNC(=O)C3)nn12` [Example 28, 4-{3-[(S)-1-(6-Fluoro-1-methyl-1H-indazol-5-yl)-ethyl]-imidazo[1,2-b]pyridazin-6-yl}-piperazin-2-one], the IC50 is 11 nM.
